Assay [1] relates to catalepsy induced by the DA receptor antagonist haloperidol. Particulars: cited from earlier work.
In assay [2] the target is T1, Human M4 (Homo sapiens, UniProt P08173).
T1 construct: expressed in transfected cells; host or cells: CHO-K1 (Chinese hamster ovary, ATCC), stably expressing M4 and Gqi5
T1 sequence (P08173 1-479): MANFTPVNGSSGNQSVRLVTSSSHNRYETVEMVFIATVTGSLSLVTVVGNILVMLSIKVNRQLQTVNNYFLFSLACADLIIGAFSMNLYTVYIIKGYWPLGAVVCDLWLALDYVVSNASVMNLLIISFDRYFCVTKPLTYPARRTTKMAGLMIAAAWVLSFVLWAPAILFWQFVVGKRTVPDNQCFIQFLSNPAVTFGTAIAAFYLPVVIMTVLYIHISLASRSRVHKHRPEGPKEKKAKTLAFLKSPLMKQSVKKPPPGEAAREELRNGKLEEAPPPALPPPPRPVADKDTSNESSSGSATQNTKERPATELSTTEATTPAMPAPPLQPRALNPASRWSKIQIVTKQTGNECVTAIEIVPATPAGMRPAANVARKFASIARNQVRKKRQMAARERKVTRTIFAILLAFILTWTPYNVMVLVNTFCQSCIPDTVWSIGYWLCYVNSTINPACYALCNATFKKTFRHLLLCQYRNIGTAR
Kind of assay: mAChR M4 cell-based functional assay (calcium flux, EC80 acetylcholine response). Particulars: M4/Gqi5/CHO-K1 cells; for remaining activity at 30 µM: % ACh maximum at 30 μM, read-out: Human M4 Emin (% ACh maximum at 30 μM); for IC50: decrease of the response to an EC80 concentration of acetylcholine, read-out: Human M4 IC50. As to the method: Human or rat M4 cDNA, along with the chimeric G protein Gqi5, were transfected into Chinese hamster ovary (CHO-K1) cells purchased from the American Type Culture Collection using Lipofectamine2000. M4/Gqi5/CHO cells were grown in Ham's F-12 medium containing […] heat-inactivated fetal bovine serum (FBS), 20 mM HEPES, 500 μg/mL G418 sulfate, and 200 μg/mL Hygromycin B.
For high throughput measurement of agonist-evoked increases in intracellular calcium, CHO-K1 cells stably expressing muscarinic receptors were plated in growth medium lacking G418 and hygromycin at 15,000 cells/20 μL/well in Greiner 384-well black-walled, tissue culture (TC)-treated, clear-bottom plates (VWR). Cells were incubated overnight at 37° C. and 500 CO2. […] Compound master plates were formatted in a 10 point concentration-response curve (CRC) format (1:3 dilutions) in 100% DMSO with a starting concentration of 10 or 1 mM using a BRAVO liquid handler (Agilent). Test compound CRCs were then transferred to daughter plates (240 nL) using the Echo acoustic plate reformatter (Labcyte, Sunnyvale, CA) and then diluted into assay buffer (40 μL) to a 2× stock using a Thermo Fisher Combi (Thermo Fisher Scientific, Waltham, MA).
Calcium flux was measured using the Functional Drug Screening System (FDSS) 6000 or 7000 (Hamamatsu Corporation, Tokyo, Japan) as an increase in the fluorescent static ratio. Compounds were applied to cells (20 μL, 2×) using the automated system of the FDSS at 2 seconds into the protocol and the data were collected at 1 Hz. […] Agonist activity was analyzed as a concentration-dependent increase in calcium mobilization upon compound addition. Positive allosteric modulator activity was analyzed as a concentration-dependent increase in the EC20 acetylcholine response. Antagonist activity was analyzed as a concentration-dependent decrease in the EC80 acetylcholine response; for the purposes of the tables herein, an IC50 (inhibitory concentration 50) was calculated as a concentration-dependent decrease of the response elicited by an EC80 concentration of acetylcholine. Concentration-response curves were generated using a four-parameter logistical equation in XLFit curve fitting software (IDBS, Bridgewater, NJ) for Excel (Microsoft, Redmond, WA) or Prism (GraphPad Software, Inc., San Diego, CA) or the Dotmatics software platform (Dotmatics, Bishop's Stortford, UK).
Compounds were synthesized as described above.

The structures appear in SMILES notation.

The IC50 is the concentration that inhibits the measured activity by half.

Consider `CN1[C@@H]2C[C@@H](OC(=O)[C@H](CO)c3ccccc3)C[C@H]1[C@@H]1O[C@@H]12` [scopolamine], for which the “reduction of haloperidol-induced catalepsy” value in assay [1] (M4 KO mice) is on record as “ineffective”. The “reversal of haloperidol-induced catalepsy” value in assay [1] (WT mice) is “completely reversed”.

For `Cc1c(-c2ccc(N[C@H]3C[C@@H]4CN(CC5CCOCC5)C[C@@H]4C3)nn2)ccc2nn(C)cc12` [compound 2, (3aR,5s,6aS)-N-(6-(2,4-dimethyl-2H-indazol-5-yl)pyridazin-3-yl)-2-((tetrahydro-2H-pyran-4-yl)methyl)octahydrocyclopenta[c]pyrrol-5-amine], in assay [2], the remaining activity at 30 µM was found to be 4% and the IC50 was found to be 0.41 nM.

For `[2H][C@@]1(Nc2ccc(-c3ccc4nn(C)cc4c3C)nn2)C[C@H]2CN(CC3CCOCC3)C[C@H]2C1` [compound 3, (3aR,5s,6aS)-N-(6-(2,4-dimethyl-2H-indazol-5-yl)pyridazin-3-yl)-2-((tetrahydro-2H-pyran-4-yl)methyl)octahydrocyclopenta[c]pyrrol-5-d-5-amine], in assay [2], the remaining activity at 30 µM turned out to be 2% and the IC50 came out at 0.33 nM.

For `[2H]C([2H])([C@@H]1CCCCO1)N1C[C@H]2C[C@H](Nc3ccc(-c4ccc5nn(C)cc5c4C)nn3)C[C@H]2C1` [compound 12, (3aR,5s,6aS)-N-(6-(2,4-dimethyl-2H-indazol-5-yl)pyridazin-3-yl)-2-(((S)-tetrahydro-2H-pyran-2-yl)methyl-d2)octahydrocyclopenta[c]pyrrol-5-amine], in assay [2], the remaining activity at 30 µM was 2% and the half-inhibitory concentration (IC50) came out at 0.36 nM.

Turning to `[2H]C([2H])(C1CCOCC1)N1C[C@H]2C[C@H](Nc3ccc(-c4ccc5nn(C([2H])([2H])[2H])cc5c4C(F)F)nn3)C[C@H]2C1` [compound 22, (3aR,5s,6aS)-N-(6-(4-(difluoromethyl)-2-(methyl-d3)-2H-indazol-5-yl)pyridazin-3-yl)-2-((tetrahydro-2H-pyran-4-yl)methyl-d2)octahydrocyclopenta[c]pyrrol-5-amine], in assay [2], the remaining activity at 30 µM came out at 4% and the IC50 came to 0.65 nM.

Regarding `Cc1c(-c2cc(C(F)(F)F)c(N[C@H]3C[C@@H]4CN(CC5CCOCC5)C[C@@H]4C3)nn2)ccc2nn(C)cc12` [compound 30, (3aR,5s,6aS)-N-(6-(2,4-dimethyl-2H-indazol-5-yl)-4-(trifluoromethyl)-pyridazin-3-yl)-2-((tetrahydro-2H-pyran-4-yl)methyl)-octahydrocyclopenta[c]pyrrol-5-amine], in assay [2], the remaining activity at 30 µM was 2%.

Regarding `COc1cc(-c2ccc3nn(C)cc3c2C)nnc1N[C@H]1C[C@@H]2CN(CC3CCOCC3)C[C@@H]2C1` [compound 26, (3aR,5s,6aS)-N-(6-(2,4-dimethyl-2H-indazol-5-yl)-4-methoxypyridazin-3-yl)-2-((tetrahydro-2H-pyran-4-yl)-methyl)octahydrocyclopenta[c]pyrrol-5-amine], in assay [2], the remaining activity at 30 µM is 4% and the IC50 is 0.79 nM.

As to `[2H]C([2H])(C1CCOCC1)N1C[C@H]2C[C@H](Nc3nnc(-c4ccc5nn(C)cc5c4C)cc3C)C[C@H]2C1` [compound 28, (3aR,5s,6aS)-N-(6-(2,4-dimethyl-2H-indazol-5-yl)-4-methylpyridazin-3-yl)-2-((tetrahydro-2H-pyran-4-yl)methyl-d2)octahydrocyclopenta[c]pyrrol-5-amine], the remaining activity at 30 µM in assay [2] was found to be 17%.

On to `[2H]C([2H])(C1CCOCC1(C)C)N1C[C@H]2C[C@H](Nc3ccc(-c4ccc5nn(C)cc5c4C)nn3)C[C@H]2C1` (stereo partly drawn) [compound 17, (3aR,5s,6aS)-N-(6-(2,4-dimethyl-2H-indazol-5-yl)pyridazin-3-yl)-2-((3,3-dimethyltetrahydro-2H-pyran-4-yl)methyl-d2)octahydrocyclopenta[c]pyrrol-5-amine], for which, in assay [2], the remaining activity at 30 µM came out at 3% and the half-inhibitory concentration (IC50) amounted to 0.9 nM.

Consider `[2H]C([2H])(N1C[C@H]2C[C@H](Nc3ccc(-c4ccc5nn(C)cc5c4C)nn3)C[C@H]2C1)C1(F)CCOCC1` [compound 20, (3aR,5s,6aS)-N-(6-(2,4-dimethyl-2H-indazol-5-yl)pyridazin-3-yl)-2-((4-fluorotetrahydro-2H-pyran-4-yl)methyl-d2)octahydrocyclopenta[c]pyrrol-5-amine], for which, in assay [2], the remaining activity at 30 µM is 4% and the IC50 turned out to be 0.99 nM.

`[2H]C([2H])(C1CCOCC1)N1C[C@H]2C[C@H](Nc3ccc(-c4ccc5nn(C)cc5c4C(F)(F)F)nn3)C[C@H]2C1` [compound 8, (3aR,5s,6aS)-N-(6-(2-methyl-4-(trifluoromethyl)-2H-indazol-5-yl)-pyridazin-3-yl)-2-((tetrahydro-2H-pyran-4-yl)methyl-d2)octahydrocyclopenta[c]pyrrol-5-amine]: in assay [2], the remaining activity at 30 µM amounted to 10% and the IC50 came to 1.1 nM.

On to `[2H]C([2H])([C@@H]1CCCOC1)N1C[C@H]2C[C@H](Nc3ccc(-c4ccc5nn(C)cc5c4C)nn3)C[C@H]2C1` [compound 13, (3aR,5s,6aS)-N-(6-(2,4-dimethyl-2H-indazol-5-yl)pyridazin-3-yl)-2-(((S)-tetrahydro-2H-pyran-3-yl)methyl-d2)octahydrocyclopenta[c]pyrrol-5-amine], for which, in assay [2], the remaining activity at 30 µM was 4% and the concentration for half-maximal inhibition (IC50) was 0.49 nM.

As to `[2H]C1([2H])CC(C([2H])([2H])N2C[C@H]3C[C@H](Nc4ccc(-c5ccc6nn(C)cc6c5C)nn4)C[C@H]3C2)CC([2H])([2H])O1` [compound 21, (3aR,5s,6aS)-N-(6-(2,4-dimethyl-2H-indazol-5-yl)pyridazin-3-yl)-2-((tetrahydro-2H-pyran-4-yl-2,2,6,6-d4)methyl-d2)octahydrocyclopenta[c]pyrrol-5-amine], in assay [2], the remaining activity at 30 µM came out at 3% and the IC50 came to 0.4 nM.

Turning to `[2H]C([2H])([C@H]1CCCOC1)N1C[C@H]2C[C@H](Nc3ccc(-c4ccc5nn(C)cc5c4C)nn3)C[C@H]2C1` [compound 14, (3aR,5s,6aS)-N-(6-(2,4-dimethyl-2H-indazol-5-yl)pyridazin-3-yl)-2-(((R)-tetrahydro-2H-pyran-3-yl)methyl-d2)octahydrocyclopenta-[c]pyrrol-5-amine], in assay [2], the remaining activity at 30 µM is 3% and the half-inhibitory concentration (IC50) was determined as 0.79 nM.

For the molecule `[2H]C([2H])(C1CCOC(C)(C)C1)N1C[C@H]2C[C@H](Nc3ccc(-c4ccc5nn(C)cc5c4C)nn3)C[C@H]2C1` (stereo partly drawn) [compound 18, (3aR,5s,6aS)-N-(6-(2,4-dimethyl-2H-indazol-5-yl)pyridazin-3-yl)-2-((2,2-dimethyltetrahydro-2H-pyran-4-yl)methyl-d2)octahydrocyclopenta[c]pyrrol-5-amine], in assay [2], the remaining activity at 30 µM was determined as 4% and the IC50 is 0.99 nM.

The values above are taken from US20240174655A1, “INDAZOLE DERIVATIVES AS ANTAGONISTS OF THE MUSCARINIC ACETYLCHOLINE RECEPTOR M4” (Vanderbilt University, priority 2021, published 2024).
